Test results as given in article PMC6020762, “An Integrative Volatile Terpenoid Profiling and Transcriptomics Analysis for Gene Mining and Functional Characterization of AvBPPS and AvPS Involved in the Monoterpenoid Biosynthesis in Amomum villosum” (Frontiers in Plant Science, 2018).

Tests used:
AvBPPS (AvTPS3) [1] = target: T1, AvBPPS (AvTPS3) (Wurfbainia villosa, UniProt A0A2Z4K4Q8); assay: GC-MS product analysis; format: biochemical; conditions: 25 mM HEPES pH 7.0, 5 mM MgCl2, 5 mM DTT, 30 °C, 2 h
T1 construct: gene TPS3; predicted 25-residue N-terminal transit peptide removed (full ORF 596 aa); E. coli Rosetta (DE3); Ni column
T1 sequence (A0A2Z4K4Q8 26-596): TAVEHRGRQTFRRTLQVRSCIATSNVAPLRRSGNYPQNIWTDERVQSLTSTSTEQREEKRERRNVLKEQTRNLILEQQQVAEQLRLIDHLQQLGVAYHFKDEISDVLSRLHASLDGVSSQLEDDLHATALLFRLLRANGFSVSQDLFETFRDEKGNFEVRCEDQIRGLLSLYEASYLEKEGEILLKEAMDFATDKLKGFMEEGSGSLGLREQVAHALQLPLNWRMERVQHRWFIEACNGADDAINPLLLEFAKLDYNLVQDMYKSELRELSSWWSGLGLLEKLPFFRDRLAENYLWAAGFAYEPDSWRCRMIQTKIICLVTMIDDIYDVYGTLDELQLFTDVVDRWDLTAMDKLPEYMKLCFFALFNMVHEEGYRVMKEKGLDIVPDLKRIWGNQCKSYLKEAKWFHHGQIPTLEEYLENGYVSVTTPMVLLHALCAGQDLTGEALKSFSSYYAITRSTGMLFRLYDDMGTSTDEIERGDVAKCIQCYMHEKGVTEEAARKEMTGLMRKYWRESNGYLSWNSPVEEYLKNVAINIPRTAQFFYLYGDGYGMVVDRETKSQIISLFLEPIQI

AvBPPS (AvTPS3) [2] = target: T1, AvBPPS (AvTPS3); assay: GC-MS of borneol after alkaline phosphatase dephosphorylation; format: biochemical; conditions: from GPP; 25 mM HEPES pH 7.0, 5 mM MgCl2, 5 mM DTT, 30 °C, 1 h, then alkaline phosphatase 37 °C
[3] = substrate: CC(C)=CCC/C(C)=C/COP(=O)(O)OP(=O)(O)O; assay: GC-MS product assay, kinetic analysis; format: biochemical, Wurfbainia villosa; conditions: Mg2+ present

CC(C)=CCC/C(C)=C/COP(=O)(O)OP(=O)(O)O [GPP]
GC-MS product analysis (AvBPPS (AvTPS3) [1]): AvTPS3 was found to catalyze GPP to produce three monoterpene compounds

CC1(C)C2CCC1(C)C(OP(=O)(O)OP(=O)(O)O)C2 (stereo not drawn) [bornyl diphosphate]
GC-MS of borneol after alkaline phosphatase dephosphorylation (AvBPPS (AvTPS3) [2]): we identified AvTPS3 as bornyl diphosphate synthase (AvBPPS) according to its most abundant product

B1: AvPS (AvTPS1) (Wurfbainia villosa) (protein)
chain: AAEESQSLSSTTSRRSGNYQPSIWTHDRIQSLTLSHAAADEEDHAEEIKLLKYQTSKLMEEKKGRVEEQLQLIDHLQQLGVAYHFKDEIKDTLRGFHASFEDVSLQLRDNLHASALLFRLLRENGFSVSEDIFKKFKDEKAGQFEDRLQSQAEGLLSLYEASYLEKDGEELLHEAREFTTKHLKNLLEEEGSLKPGLIREQVAHALELPLNWRFQRLHTKWFIGAWQRDPAMDPALLGLAKLDFNALQNIYKRELKEASRWWTDLGLPQKLPFFRDRLTENYLWTVGWAFEPDSWAFRELQTKINCFITLIDDVYDVYGTLDELELFTDIMERWDVNSIDKLPEYMKICFLAVFNTVNDAGYEVIRDKGVDIIPYLKRAWAELCKMYMREARWYHAGYTPTLDEYLDGAWISISGALILSTAYCMGNDLTKDDLDKFSTYPAVMHPSCMLLRLHDDFGTSTDELARGDVQKAVQCCMHERKVPEAVAREHIMQVMEAKWRLLNGNRVATSSFEEYFLNVAINIPRSAQFFYGQGDGYGKSDGETKKQVISLLIEPVQF
notes: predicted 42-residue N-terminal transit peptide removed (full ORF 600 aa); E. coli Rosetta (DE3); Ni column
Km [3]: 1.99 µM
